The record followed here is US20230278972A1, “SUBSTITUTED HALOALKYL SULFONANILIDE HERBICIDES” (FMC Corporation, priority 2020, published 2023).

The subject of one experiment is kochia (Bassia scoparia). In words: Test A preemergence, kochia. It counts as in vivo. The note with it: Bassia scoparia, pre-emergence, 240 h, Preemergence; for pest or weed control at 125 g/ha: 125 g ai/ha; for pest or weed control at 500 g/ha: 500 g ai/ha. The method, boiled down:
(§1)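 Seeds are sown in loam mixed with sand and sprayed on the soil surface right after planting for the preemergence test. Postemergence pots are sprayed once seedlings reach 2 to 10 cm at the one- to two-leaf stage. The same surfactant-containing, non-phytotoxic solvent formulation serves both.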

The subject of experiment [1] is pigweed (Amaranthus retroflexus). The experiment is described as follows: Test A postemergence, pigweed. It counts as in vivo. The note with it: Amaranthus retroflexus, post-emergence, 240 h, Postemergence, 0 to 100 scale (0 no effect, 100 complete control); for pest or weed control at 125 g/ha: 125 g ai/ha; for pest or weed control at 500 g/ha: 500 g ai/ha. The method, boiled down:
as §1

In experiment [2] the test system is wheat (Triticum aestivum). In words: Test A postemergence, wheat. It counts as in vivo. The note with it: Triticum aestivum, post-emergence, 240 h, Postemergence, 0 to 100 scale (0 no effect, 100 complete control); for plant injury at 125 g/ha: 125 g ai/ha; for plant injury at 500 g/ha: 500 g ai/ha. The method, boiled down: (§2)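 Postemergence ratings come from foliar sprays onto one- to two-leaf plants of 2 to 10 cm grown in loam/sand; preemergence ratings come from a directed spray onto the soil of newly seeded pots. Formulation was a surfactant-containing non-phytotoxic solvent blend.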

Experiment [3] relates to barnyardgrass (Echinochloa crus-galli). In words: Test A postemergence, barnyardgrass. The format is in vivo. The note with it: Echinochloa crus-galli, post-emergence, 240 h, Postemergence, 0 to 100 scale (0 no effect, 100 complete control); for pest or weed control at 125 g/ha: 125 g ai/ha, visual injury approx. 10 days; for pest or weed control at 500 g/ha: 500 g ai/ha. The method, boiled down:
as §2

In experiment [4] the test system is ducksalad (Heteranthera limosa). The experiment is described as follows: Test B flooded paddy test, ducksalad. The note with it: 336 h, read-out: Plant response rating, Ducksalad.
Where [5] appears, read: visual injury on 0 to 100 scale (0 no effect, 100 complete control), approximately 10 days, read-out: Kochia plant response rating.
Where [6] appears, read: 0 to 100 scale (0 no effect, 100 complete control), read-out: Plant response rating, Kochia.
Where [7] appears, read: visual injury approx. 10 days, read-out: Plant response rating, Pigweed.
Where [8] appears, read: visual injury, approx. 10 days, read-out: Plant response rating, Pigweed.
[9] abbreviates: visual injury approx. 10 days, read-out: Plant response rating, Wheat.
[10] abbreviates: visual injury, approx. 10 days, read-out: Plant response rating, Wheat.
Where [11] appears, read: read-out: Plant response rating, Barnyardgrass.
Where [12] appears, read: visual injury, approx. 10 days, read-out: Plant response rating, Barnyardgrass.
[13] abbreviates: visual injury vs untreated controls after approx. 10 days, read-out: Pigweed plant response rating.
[14] abbreviates: visual injury vs untreated controls after approx. 10 days, read-out: Wheat plant response rating.
The mark [15] stands for this setting: visual injury vs untreated controls after approx. 10 days, read-out: Barnyardgrass plant response rating.
The mark [16] stands for this setting: read-out: Plant response rating, Pigweed.
[17] abbreviates: read-out: Plant response rating, Wheat.
Setting [18] is: visual injury, 0 to 100 scale (0 no effect, 100 complete control), approx. 10 days, read-out: Plant response rating, Kochia.

Like-named read-outs stand apart in the source and are kept apart here.

Consider `Cc1cc(Cl)c(NS(=O)(=O)C(F)(F)F)cc1C(=O)N1CCOCC1` [Compound 16, N-[2-Chloro-4-methyl-5-(4-morpholinylcarbonyl)phenyl]-1,1,1-trifluoromethanesulfonamide], for which the pest or weed control at 125 g/ha in the experiment on kochia (Bassia scoparia) (setting [5]) worked out at 90%; in experiment [1] (setting [7]) it was 70%; in experiment [3] (setting [11]), 60%. Further, the pest or weed control at 500 g/ha (in the experiment with kochia (Bassia scoparia) (setting [6]); in experiment [1] (setting [8]); in experiment [3] (setting [12])) was 90% each time. Besides, the plant injury at 125 g/ha in experiment [2] (setting [9]) was 50%. For the same molecule, the plant injury at 500 g/ha in experiment [2] (setting [10]) amounted to 70%. For the same molecule, the pest or weed control at 250 g/ha in experiment [4] is 40%.

As for `Cc1cc(Cl)c(NS(=O)(=O)C(F)(F)F)cc1C(=O)N1CCCCC1` [Compound 18, N-[2-Chloro-4-methyl-5-(1-piperidinylcarbonyl)phenyl]-1,1,1-trifluoromethanesulfonamide], the pest or weed control at 125 g/ha came out at 10% in the experiment on kochia (Bassia scoparia) (setting [5]), 40% in experiment [1] (setting [7]) and 0% in experiment [3] (setting [11]). Further, the pest or weed control at 500 g/ha came to 60% in the experiment on kochia (Bassia scoparia) (setting [6]), 90% in experiment [1] (setting [8]) and 70% in experiment [3] (setting [12]). Moreover, in experiment [2] (setting [9]), the plant injury at 125 g/ha is 0%. In addition, the plant injury at 500 g/ha in experiment [2] (setting [10]) turned out to be 70%. Moreover, the pest or weed control at 250 g/ha in experiment [4] amounted to 0%.

As to `CCc1cc(-c2cc(NS(=O)(=O)C(F)(F)F)c(C)cc2C)c(=O)n(C)n1` [Compound 34, N-[5-(6-Ethyl-2,3-dihydro-2-methyl-3-oxo-4-pyridazinyl)-2,4-dimethylphenyl]-1,1,1-trifluoromethanesulfonamide], the results for the pest or weed control at 125 g/ha (in the experiment on kochia (Bassia scoparia) (setting [5]); in experiment [1] (setting [7]); in experiment [3] (setting [11])) were 30%, 0% and 0%, respectively. The pest or weed control at 500 g/ha in the experiment with kochia (Bassia scoparia) (setting [6]) stood at 70%; in experiment [1] (setting [8]), 0%; in experiment [3] (setting [12]), 0%. In experiment [2] (setting [9]), the plant injury at 125 g/ha is 0%. In addition, the plant injury at 500 g/ha in experiment [2] (setting [10]) came to 0%. The pest or weed control at 250 g/ha in experiment [4] stood at 0%.

`Cc1cc(C)c(N(COC(=O)C(C)(C)C)S(=O)(=O)C(F)(F)F)cc1C1=NO[C@@H]2CCC[C@H]12` [Compound 100, [[2,4-Dimethyl-5-[(3aR,6aR)-3a,5,6,6a-tetrahydro-4H-cyclopent[d]isoxazol-3-yl]phenyl][(trifluoromethyl)sulfonyl]amino]methyl 2,2-dimethylpropanoate]: the pest or weed control at 125 g/ha in the experiment on kochia (Bassia scoparia) (setting [5]) worked out at 60%; in experiment [1] (setting [7]) it was 60%; in experiment [3] (setting [11]), 80%. Moreover, the pest or weed control at 500 g/ha in the experiment on kochia (Bassia scoparia) (setting [6]) is 80%; in experiment [1] (setting [13]), 90%; in experiment [3] (setting [15]), 90%. Further, the plant injury at 125 g/ha in experiment [2] (setting [9]) is 20%. Further, in experiment [2] (setting [14]), the plant injury at 500 g/ha was 50%. For the same molecule, in experiment [4], the pest or weed control at 250 g/ha is 70%.

With `Cc1cc(C)c(C2=NO[C@@H]3CCC[C@H]23)cc1NS(=O)(=O)C(F)(F)F` [Compound 103, N-[2,4-Dimethyl-5-[(3aR,6aR)-3a,5,6,6a-tetrahydro-4H-cyclopent[d]isoxazol-3-yl]phenyl]-1,1,1-trifluoromethanesulfonamide], the pest or weed control at 125 g/ha with kochia (Bassia scoparia) (setting [5]) came to 80%; in experiment [1] (setting [7]), 80%; in experiment [3] (setting [11]), 90%. Moreover, the values for the pest or weed control at 500 g/ha (in the experiment with kochia (Bassia scoparia) (setting [6]); in experiment [1] (setting [13]); in experiment [3] (setting [15])) were 90%, 80% and 90%, respectively. Besides, the plant injury at 125 g/ha in experiment [2] (setting [9]) is 60%. Moreover, in experiment [2] (setting [14]), the plant injury at 500 g/ha was determined as 80%. Further, the pest or weed control at 250 g/ha in experiment [4] was 80%.

For `Cc1cc(C)c(C2=NOC3CCOCC23)cc1NS(=O)(=O)C(F)(F)F` (centres unmarked) [Compound 120, N-[2,4-Dimethyl-5-(3a,6,7,7a-tetrahydro-4H-pyrano[3,4-d]isoxazol-3-yl)phenyl]-1,1,1-trifluoromethanesulfonamide], the pest or weed control at 125 g/ha turned out to be 90% in the experiment on kochia (Bassia scoparia) (setting [5]), 60% in experiment [1] (setting [7]) and 90% in experiment [3] (setting [11]). Moreover, the pest or weed control at 500 g/ha in the experiment on kochia (Bassia scoparia) (setting [6]) is 100%; in experiment [1] (setting [13]) it was 90%; in experiment [3] (setting [15]) it was 90%. In addition, in experiment [2] (setting [9]), the plant injury at 125 g/ha amounted to 70%. Further, the plant injury at 500 g/ha in experiment [2] (setting [14]) was 70%. The pest or weed control at 250 g/ha in experiment [4] stood at 55%.

As to `Cc1cc(C)c(C2=NOC3COCCC23)cc1NS(=O)(=O)C(F)(F)F` (centres unmarked) [Compound 121, N-[2,4-Dimethyl-5-(3a,4,7,7a-tetrahydro-5H-pyrano[4,3-d]isoxazol-3-yl)phenyl]-1,1,1-trifluoromethanesulfonamide], the values for the pest or weed control at 125 g/ha (in the experiment on kochia (Bassia scoparia) (setting [5]); in experiment [1] (setting [7]); in experiment [3] (setting [11])) were 90%, 70% and 90%, respectively. In addition, the pest or weed control at 500 g/ha (with kochia (Bassia scoparia) (setting [6]); in experiment [1] (setting [13]); in experiment [3] (setting [15])) was 90% each time. In addition, the plant injury at 125 g/ha in experiment [2] (setting [9]) stood at 60%. In experiment [2] (setting [14]), the plant injury at 500 g/ha came to 70%. For the same molecule, the pest or weed control at 250 g/ha in experiment [4] was found to be 75%.

As for `Cc1c(NS(=O)(=O)C(F)(F)F)cc(C(=O)N(C)C)c(C)c1F` [Compound 128, 3-Fluoro-N,N,2,4-tetramethyl-5-[[(trifluoromethyl)sulfonyl]amino]benzamide], the pest or weed control at 125 g/ha in the experiment with kochia (Bassia scoparia) (setting [5]) turned out to be 80%; in experiment [1] (setting [7]) it was 60%; in experiment [3] (setting [11]), 50%. In addition, the pest or weed control at 500 g/ha with kochia (Bassia scoparia) (setting [6]) is 80%; in experiment [1] (setting [13]), 90%; in experiment [3] (setting [15]), 90%. Moreover, the plant injury at 125 g/ha in experiment [2] (setting [9]) came to 30%. The plant injury at 500 g/ha in experiment [2] (setting [14]) came to 60%. In experiment [4], the pest or weed control at 250 g/ha is 50%.

In the case of `Cc1cc(C)c(N(COC(=O)C(C)(C)C)S(=O)(=O)C(F)(F)F)cc1C1=NOC2(CCCC2)C1` [Compound 140, [[2,4-Dimethyl-5-(1-oxa-2-azaspiro[4.4]non-2-en-3-yl)phenyl][(trifluoromethyl)sulfonyl]amino]methyl 2,2-dimethylpropanoate], the pest or weed control at 125 g/ha with kochia (Bassia scoparia) (setting [5]) was found to be 0%; in experiment [1] (setting [16]), 10%; in experiment [3] (setting [11]), 70%. Also, the results for the pest or weed control at 500 g/ha (with kochia (Bassia scoparia) (setting [6]); in experiment [1] (setting [13]); in experiment [3] (setting [15])) were 70%, 80% and 90%, respectively. Moreover, the plant injury at 125 g/ha in experiment [2] (setting [17]) stood at 0%. The plant injury at 500 g/ha in experiment [2] (setting [14]) amounted to 60%. For the same molecule, the pest or weed control at 250 g/ha in experiment [4] is 85%.

As to `Cc1cc(C)c(C2=NOC3(CCCCC3)C2)cc1NS(=O)(=O)C(F)(F)F` [Compound 197, N-[2,4-Dimethyl-5-(1-oxa-2-azaspiro[4.5]dec-2-en-3-yl)phenyl]-1,1,1-trifluoromethanesulfonamide], the results for the pest or weed control at 125 g/ha (in the experiment on kochia (Bassia scoparia) (setting [18]); in experiment [1] (setting [16])) were 90% and 60%, respectively. The pest or weed control at 500 g/ha (in the experiment on kochia (Bassia scoparia) (setting [6]); in experiment [1] (setting [13])) was 90% each time. In addition, the plant injury at 125 g/ha in experiment [2] (setting [17]) came out at 60%. Besides, the plant injury at 500 g/ha in experiment [2] (setting [14]) is 70%. Further, in experiment [4], the pest or weed control at 250 g/ha was 95%.

`Cc1cc(Cl)c(NS(=O)(=O)C(F)(F)F)cc1C(=O)N1CCC(F)(F)CC1` [Compound 229, N-[2-Chloro-5-[(4,4-difluoro-1-piperidinyl)carbonyl]-4-methylphenyl]-1,1,1-trifluoromethanesulfonamide]: the pest or weed control at 125 g/ha (in the experiment with kochia (Bassia scoparia) (setting [18]); in experiment [1] (setting [16])) was 80% each time. Moreover, the pest or weed control at 500 g/ha (with kochia (Bassia scoparia) (setting [5]); in experiment [1] (setting [13])) was 100% in each case. Also, the plant injury at 125 g/ha in experiment [2] (setting [17]) was 60%. In addition, the plant injury at 500 g/ha in experiment [2] (setting [14]) worked out at 70%. Further, in experiment [4], the pest or weed control at 250 g/ha was 75%.
